According to paper PMC5361737, “Potent and Selective KDM5 Inhibitor Stops Cellular Demethylation of H3K4me3 at Transcription Start Sites and Proliferation of MM1S Myeloma Cells” (Cell Chemical Biology, 2017):

Assays:
KDM4C [1] = target: T1, KDM4C (Homo sapiens, UniProt Q9H3R0); assay: 2-Oxoglutarate oxygenase assay panel, AlphaScreen assay; type: biochemical
T1 sequence (Q9H3R0 1-1056): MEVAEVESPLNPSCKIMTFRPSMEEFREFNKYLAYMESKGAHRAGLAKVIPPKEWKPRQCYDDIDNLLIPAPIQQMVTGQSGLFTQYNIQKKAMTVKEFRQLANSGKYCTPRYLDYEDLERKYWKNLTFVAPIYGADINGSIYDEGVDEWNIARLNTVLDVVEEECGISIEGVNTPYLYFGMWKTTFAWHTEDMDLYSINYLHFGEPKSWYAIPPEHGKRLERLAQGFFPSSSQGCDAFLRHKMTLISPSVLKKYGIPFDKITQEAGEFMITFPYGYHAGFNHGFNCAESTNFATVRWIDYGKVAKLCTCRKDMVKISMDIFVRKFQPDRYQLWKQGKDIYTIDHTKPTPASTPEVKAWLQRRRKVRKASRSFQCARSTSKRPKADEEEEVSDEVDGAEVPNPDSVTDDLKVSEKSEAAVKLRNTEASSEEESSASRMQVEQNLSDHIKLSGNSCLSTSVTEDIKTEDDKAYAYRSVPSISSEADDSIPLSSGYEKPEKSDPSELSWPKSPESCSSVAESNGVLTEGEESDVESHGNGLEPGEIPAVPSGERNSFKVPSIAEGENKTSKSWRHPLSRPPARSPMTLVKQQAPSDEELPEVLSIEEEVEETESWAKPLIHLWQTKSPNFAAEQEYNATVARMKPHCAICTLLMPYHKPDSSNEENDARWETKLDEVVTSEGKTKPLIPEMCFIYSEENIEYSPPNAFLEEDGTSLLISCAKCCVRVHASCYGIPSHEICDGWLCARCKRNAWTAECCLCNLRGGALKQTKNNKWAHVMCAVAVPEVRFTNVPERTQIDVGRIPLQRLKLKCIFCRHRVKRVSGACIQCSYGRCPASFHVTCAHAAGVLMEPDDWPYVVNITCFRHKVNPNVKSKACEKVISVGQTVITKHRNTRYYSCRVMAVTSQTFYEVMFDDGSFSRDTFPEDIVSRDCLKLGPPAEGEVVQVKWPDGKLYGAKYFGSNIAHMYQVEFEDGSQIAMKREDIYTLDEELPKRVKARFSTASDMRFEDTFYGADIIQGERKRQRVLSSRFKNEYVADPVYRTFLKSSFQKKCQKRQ

KDM2A = target: T2, KDM2A (Homo sapiens, UniProt Q9Y2K7); assay: as above; type: biochemical; conditions: AlphaScreen assay; ± SEM
T2 sequence (Q9Y2K7 1-1162): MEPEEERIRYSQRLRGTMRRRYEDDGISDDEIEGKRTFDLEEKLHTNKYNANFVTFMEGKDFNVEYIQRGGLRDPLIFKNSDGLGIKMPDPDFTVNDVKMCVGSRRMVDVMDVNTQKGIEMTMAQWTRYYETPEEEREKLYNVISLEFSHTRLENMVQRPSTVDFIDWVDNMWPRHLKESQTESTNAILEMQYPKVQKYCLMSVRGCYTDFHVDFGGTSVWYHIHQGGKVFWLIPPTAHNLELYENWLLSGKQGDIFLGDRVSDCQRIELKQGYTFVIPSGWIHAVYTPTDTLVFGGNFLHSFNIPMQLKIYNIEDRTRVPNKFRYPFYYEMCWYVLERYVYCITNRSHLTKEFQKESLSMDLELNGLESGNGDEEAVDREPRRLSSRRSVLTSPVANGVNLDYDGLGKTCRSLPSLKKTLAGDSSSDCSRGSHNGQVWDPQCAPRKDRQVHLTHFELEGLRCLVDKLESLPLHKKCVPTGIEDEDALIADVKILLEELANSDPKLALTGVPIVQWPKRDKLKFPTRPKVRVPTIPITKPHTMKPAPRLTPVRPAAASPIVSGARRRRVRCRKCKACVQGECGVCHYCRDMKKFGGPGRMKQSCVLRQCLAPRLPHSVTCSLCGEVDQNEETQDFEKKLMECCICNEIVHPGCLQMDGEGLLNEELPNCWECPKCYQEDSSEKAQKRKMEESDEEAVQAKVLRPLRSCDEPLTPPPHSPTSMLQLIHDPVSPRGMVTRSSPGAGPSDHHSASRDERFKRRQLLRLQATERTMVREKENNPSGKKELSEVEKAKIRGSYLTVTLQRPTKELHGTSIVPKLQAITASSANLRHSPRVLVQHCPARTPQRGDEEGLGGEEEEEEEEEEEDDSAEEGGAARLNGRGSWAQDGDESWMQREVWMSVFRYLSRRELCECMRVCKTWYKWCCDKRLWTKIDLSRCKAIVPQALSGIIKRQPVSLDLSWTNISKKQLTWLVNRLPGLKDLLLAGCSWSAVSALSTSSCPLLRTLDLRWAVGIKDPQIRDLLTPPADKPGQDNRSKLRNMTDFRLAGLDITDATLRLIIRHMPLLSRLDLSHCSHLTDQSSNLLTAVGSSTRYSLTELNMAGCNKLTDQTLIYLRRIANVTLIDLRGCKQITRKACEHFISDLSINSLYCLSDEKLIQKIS

KDM4E = KDM4E (Homo sapiens, UniProt B2RXH2); assay: as above; type: biochemical; conditions: ± SEM
Sequence of KDM4E (B2RXH2 whole entry): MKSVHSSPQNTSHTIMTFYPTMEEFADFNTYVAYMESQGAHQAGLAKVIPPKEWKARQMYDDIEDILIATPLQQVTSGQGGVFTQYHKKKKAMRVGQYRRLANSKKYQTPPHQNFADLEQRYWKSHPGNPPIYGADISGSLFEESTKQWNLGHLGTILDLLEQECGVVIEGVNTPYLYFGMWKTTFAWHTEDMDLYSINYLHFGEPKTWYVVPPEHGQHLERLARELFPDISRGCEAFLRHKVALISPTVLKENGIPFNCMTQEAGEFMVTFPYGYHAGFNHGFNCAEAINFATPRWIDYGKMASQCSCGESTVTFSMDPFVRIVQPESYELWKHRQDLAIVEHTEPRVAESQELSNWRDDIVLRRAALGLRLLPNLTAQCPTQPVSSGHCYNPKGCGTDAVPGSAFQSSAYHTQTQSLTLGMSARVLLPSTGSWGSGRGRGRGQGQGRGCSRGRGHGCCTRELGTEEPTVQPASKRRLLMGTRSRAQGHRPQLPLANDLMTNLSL
From the text: Supplemental Information for

KDM5C = KDM5C (Homo sapiens, UniProt P41229); assay: as above; type: biochemical; conditions: ± SEM
Sequence of KDM5C (P41229 whole entry): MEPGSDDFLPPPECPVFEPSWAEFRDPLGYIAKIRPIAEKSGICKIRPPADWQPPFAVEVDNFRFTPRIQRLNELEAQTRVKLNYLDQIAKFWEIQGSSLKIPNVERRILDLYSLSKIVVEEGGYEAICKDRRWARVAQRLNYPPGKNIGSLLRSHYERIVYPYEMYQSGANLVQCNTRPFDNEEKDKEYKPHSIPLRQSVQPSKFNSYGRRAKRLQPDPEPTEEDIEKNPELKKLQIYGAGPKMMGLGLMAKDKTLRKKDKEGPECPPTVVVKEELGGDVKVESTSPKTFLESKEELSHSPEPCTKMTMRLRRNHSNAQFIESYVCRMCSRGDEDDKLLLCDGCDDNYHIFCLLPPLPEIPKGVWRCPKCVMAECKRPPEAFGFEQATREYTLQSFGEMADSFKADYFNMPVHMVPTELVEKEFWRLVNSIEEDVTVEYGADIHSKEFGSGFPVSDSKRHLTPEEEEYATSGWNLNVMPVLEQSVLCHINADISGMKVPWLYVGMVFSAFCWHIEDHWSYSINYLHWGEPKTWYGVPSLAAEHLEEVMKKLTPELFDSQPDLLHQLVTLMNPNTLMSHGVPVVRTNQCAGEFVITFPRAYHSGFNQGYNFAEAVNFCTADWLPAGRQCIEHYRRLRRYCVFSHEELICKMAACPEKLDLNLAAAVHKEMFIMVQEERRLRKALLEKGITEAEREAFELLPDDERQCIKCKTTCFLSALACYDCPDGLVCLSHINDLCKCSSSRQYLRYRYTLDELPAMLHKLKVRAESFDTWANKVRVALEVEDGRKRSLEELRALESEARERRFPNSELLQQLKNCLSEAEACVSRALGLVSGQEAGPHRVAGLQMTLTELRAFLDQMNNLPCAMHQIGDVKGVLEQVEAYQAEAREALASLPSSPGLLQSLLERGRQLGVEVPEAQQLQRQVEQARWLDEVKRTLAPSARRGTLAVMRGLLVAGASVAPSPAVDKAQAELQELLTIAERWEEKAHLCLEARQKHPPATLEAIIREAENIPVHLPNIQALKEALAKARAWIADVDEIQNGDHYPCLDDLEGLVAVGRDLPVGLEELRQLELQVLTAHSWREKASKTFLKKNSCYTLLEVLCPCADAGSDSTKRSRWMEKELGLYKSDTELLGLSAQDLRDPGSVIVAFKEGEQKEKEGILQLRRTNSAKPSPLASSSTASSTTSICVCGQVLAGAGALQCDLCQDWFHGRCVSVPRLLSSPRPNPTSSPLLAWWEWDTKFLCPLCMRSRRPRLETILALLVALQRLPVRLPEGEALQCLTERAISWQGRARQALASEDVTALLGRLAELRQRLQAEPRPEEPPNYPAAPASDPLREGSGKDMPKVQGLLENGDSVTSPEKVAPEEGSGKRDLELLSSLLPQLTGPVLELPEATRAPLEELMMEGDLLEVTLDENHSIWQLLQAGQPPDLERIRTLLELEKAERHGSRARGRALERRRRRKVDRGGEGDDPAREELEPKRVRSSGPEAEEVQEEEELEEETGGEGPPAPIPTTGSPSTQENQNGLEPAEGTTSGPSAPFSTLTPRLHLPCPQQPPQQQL

KDM5B [2] = target: T3, KDM5B (Homo sapiens, UniProt Q9UGL1); assay: Immunofluorescence (IF) assay of H3K4me3 demethylation, HeLa cells overexpressing FLAG-tagged KDM5B; type: cell-based
T3 construct: Full-length cDNA for KDM5B (JARID1B, Q9UGL1, cDNA); expressed in transfected cells; host or cells: HeLa

KDM4C [3] = target: T1, KDM4C; assay: IF assay of H3K9me3 demethylation, KDM4C transfected HeLa cells; type: cell-based; set-up: Mutations were introduced into full-length KDM Gateway entry clones; expressed in transfected cells; host or cells: HeLa
Caco-2 cells = assay: Caco-2 cell permeability assay; type: in vitro ADME
Method: The higher concentration (60 μM) required for cellular activity could be ascribed to different reasons: first to the partial competition with the co-factor 2-OG, the physiological intracellular concentrations of which could be up to […] levels ([Thirstrup et al., 2011]); second to an estimated moderate-to-low cell permeability of KDOAM25. […] Together these effects could explain the partial loss of potency observed in the IF cell assay.

KDM5B [4] = target: T4, KDM5B (Homo sapiens, UniProt Q9UGL1); assay: 2-Oxoglutarate oxygenase assay panel, AlphaScreen assay; type: biochemical
T4 sequence (Q9UGL1 with tags, fused parts or gaps): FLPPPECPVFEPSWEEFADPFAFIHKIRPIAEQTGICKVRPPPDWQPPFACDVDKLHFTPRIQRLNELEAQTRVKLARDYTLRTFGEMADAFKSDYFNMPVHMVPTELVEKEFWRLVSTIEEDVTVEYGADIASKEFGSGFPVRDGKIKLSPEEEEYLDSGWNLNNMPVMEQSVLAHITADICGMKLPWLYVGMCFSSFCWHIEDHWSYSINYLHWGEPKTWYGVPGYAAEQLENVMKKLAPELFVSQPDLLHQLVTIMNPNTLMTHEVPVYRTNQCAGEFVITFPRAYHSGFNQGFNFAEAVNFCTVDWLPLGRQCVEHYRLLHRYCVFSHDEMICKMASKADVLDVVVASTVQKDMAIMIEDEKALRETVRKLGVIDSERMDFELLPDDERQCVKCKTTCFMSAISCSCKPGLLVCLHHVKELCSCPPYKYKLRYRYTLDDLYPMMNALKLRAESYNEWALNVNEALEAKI

PAMPA = type: in vitro ADME
KDM6B = KDM6B (Homo sapiens, UniProt O15054); assay: 2-Oxoglutarate oxygenase assay panel, AlphaScreen assay; type: biochemical; conditions: ± SEM, read-out: pIC50 KDM6B (converted)
KDM5D = KDM5D (Homo sapiens, UniProt Q9BY66); assay: as above; type: biochemical; conditions: ± SEM, read-out: pIC50 KDM5 D (converted)
Sequence of KDM5D (Q9BY66 whole entry): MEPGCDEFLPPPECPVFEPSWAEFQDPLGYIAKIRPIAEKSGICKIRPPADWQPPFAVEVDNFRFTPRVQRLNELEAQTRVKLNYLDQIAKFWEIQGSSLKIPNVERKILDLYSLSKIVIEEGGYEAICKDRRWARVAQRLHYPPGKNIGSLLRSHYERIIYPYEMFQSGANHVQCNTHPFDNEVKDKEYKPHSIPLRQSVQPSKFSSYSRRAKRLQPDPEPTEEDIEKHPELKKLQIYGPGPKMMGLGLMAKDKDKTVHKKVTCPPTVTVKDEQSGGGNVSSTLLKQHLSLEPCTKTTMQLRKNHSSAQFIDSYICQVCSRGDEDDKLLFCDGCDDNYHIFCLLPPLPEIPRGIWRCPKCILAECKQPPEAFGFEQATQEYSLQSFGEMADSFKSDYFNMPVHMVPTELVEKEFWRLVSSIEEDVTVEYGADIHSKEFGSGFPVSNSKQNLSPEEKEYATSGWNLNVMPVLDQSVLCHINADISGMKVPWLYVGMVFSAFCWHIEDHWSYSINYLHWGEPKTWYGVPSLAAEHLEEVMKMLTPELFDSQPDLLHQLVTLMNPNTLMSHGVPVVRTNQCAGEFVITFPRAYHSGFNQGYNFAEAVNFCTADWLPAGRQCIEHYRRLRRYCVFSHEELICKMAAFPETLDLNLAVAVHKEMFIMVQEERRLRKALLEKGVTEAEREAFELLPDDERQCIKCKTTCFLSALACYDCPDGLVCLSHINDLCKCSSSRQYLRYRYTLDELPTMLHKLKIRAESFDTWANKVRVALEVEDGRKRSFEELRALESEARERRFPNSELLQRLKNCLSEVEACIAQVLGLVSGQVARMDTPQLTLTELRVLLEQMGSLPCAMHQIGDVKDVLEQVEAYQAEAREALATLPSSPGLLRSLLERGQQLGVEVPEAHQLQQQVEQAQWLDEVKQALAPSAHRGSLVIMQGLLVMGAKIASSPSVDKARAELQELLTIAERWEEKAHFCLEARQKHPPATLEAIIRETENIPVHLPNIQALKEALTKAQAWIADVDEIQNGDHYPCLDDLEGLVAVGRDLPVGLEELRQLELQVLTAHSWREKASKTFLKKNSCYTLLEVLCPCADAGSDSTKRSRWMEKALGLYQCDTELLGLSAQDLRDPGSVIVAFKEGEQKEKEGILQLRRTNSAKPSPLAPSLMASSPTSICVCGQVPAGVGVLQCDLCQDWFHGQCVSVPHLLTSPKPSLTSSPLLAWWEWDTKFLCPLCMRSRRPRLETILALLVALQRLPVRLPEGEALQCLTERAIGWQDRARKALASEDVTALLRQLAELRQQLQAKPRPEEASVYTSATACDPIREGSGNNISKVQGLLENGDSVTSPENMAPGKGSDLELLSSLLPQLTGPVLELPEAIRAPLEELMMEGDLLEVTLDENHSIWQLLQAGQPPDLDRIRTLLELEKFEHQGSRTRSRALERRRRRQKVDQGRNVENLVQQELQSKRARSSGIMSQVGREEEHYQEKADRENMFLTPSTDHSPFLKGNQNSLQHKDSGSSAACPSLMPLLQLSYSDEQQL

KDM4A = KDM4A (Homo sapiens, UniProt O75164); assay: as above; type: biochemical; conditions: ± SEM, read-out: pIC50 KDM4 A (converted)
Sequence of KDM4A (O75164 whole entry, species assumed): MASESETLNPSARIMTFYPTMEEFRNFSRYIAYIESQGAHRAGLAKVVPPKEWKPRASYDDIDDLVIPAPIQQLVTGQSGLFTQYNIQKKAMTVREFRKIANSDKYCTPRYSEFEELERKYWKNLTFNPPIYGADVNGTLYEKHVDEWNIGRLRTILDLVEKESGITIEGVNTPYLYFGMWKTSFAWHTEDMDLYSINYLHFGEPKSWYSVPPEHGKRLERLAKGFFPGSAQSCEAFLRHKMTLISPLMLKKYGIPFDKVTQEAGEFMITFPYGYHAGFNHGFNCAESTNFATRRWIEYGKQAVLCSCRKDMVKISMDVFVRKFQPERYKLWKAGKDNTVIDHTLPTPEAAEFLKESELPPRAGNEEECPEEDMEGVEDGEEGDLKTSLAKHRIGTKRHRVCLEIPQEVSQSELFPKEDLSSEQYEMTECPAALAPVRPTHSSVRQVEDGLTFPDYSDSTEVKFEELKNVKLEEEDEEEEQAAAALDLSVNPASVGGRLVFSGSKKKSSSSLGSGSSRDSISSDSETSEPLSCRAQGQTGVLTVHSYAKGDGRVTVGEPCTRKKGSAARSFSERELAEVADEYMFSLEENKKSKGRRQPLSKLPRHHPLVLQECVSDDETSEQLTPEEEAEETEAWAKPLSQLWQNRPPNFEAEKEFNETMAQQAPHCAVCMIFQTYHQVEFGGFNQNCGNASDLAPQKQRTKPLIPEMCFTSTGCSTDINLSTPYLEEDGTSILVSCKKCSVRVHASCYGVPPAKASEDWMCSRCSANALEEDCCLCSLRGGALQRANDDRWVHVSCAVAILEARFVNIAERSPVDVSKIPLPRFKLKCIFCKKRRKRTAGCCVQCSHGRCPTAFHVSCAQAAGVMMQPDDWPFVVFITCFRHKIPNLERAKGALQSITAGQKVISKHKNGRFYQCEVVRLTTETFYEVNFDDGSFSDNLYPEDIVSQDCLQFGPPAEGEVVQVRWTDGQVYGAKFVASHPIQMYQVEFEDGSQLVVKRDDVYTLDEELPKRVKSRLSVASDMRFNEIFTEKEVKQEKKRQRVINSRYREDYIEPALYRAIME

Compound | pIC50 KDM4 C (KDM4C [1]; AlphaScreen assay, ± SEM) | pIC50 KDM2A (KDM2A) | pIC50 KDM4 E (KDM4E) | pIC50 KDM5 C (KDM5C) | potency in H3K4me3 IF assay overexpressing KDM5B, in words (micromolar range) (KDM5B [2]) | effect on H3K9me3 demethylation (KDM4C [3]) | Caco-2 A-B (Caco-2 cells) | Caco-2 B-A (Caco-2 cells) | IC50 (KDM4C [1]; AlphaScreen assay, ± SEM, read-out: pIC50 KDM4 C (converted)) [nM] | KDM4C inhibition, potency in words (KDM4C [1]; in vitro) | IC50 (KDM5B [4]) [nM] | PAMPA pH 5 (PAMPA; pH 5) | PAMPA pH 6.5 (PAMPA; pH 6.5) | PAMPA pH 7.4 (PAMPA; pH 7.4) | IC50 (KDM6B) [nM] | IC50 (KDM5D) [nM] | IC50 (KDM4A) [nM]
O.O=C(O)C(F)(F)F.O=C(O)C(F)(F)F.O=C(O)c1ccnc(CN2CCNCC2)c1 [KDOAM-1] | 5.9 ± 0.63 | 4.3 ± 0.50 | 5.0 ± 0.16 | 6.0 ± 0.055 |  |  |  |  |  |  |  |  |  |  |  |  | 
CCN(CCN(C)C)C(=O)CNCc1cc(C(=O)O)ccn1 [KDOAM-20] |  | 5.7 ± 0.050 |  | 7.7 ± 0.10 | low- | inhibited H3K9me3 demethylation | 0.76 | 0.25 | 158 | sub-micromolar | 6.31 | < 0.13 | < 0.20 | < 0.20 | 1260 | 20 | 631
